# Test results as given in patent US11939308B2, “Biphenyl derivative compound and use thereof” (EWHA UNIVERSITY—INDUSTRY COLLABORATION FOUNDATION, priority 2018, dated 2024).
# What was measured:
# recombinant Nm23-H1 = recombinant Nm23-H1 (Homo sapiens, UniProt P15531); assay: NDPK assay with recombinant Nm23-H1; type: biochemical; design: NDPK activity: unit not given here; conditions: for NDPK activity: 5 ng recombinant Nm23-H1, 10 min room temperature, then 5 μM ADP 1 min, compound concentration not given
# Experimental: NDPK assay was performed by incubating 5 ng of recombinant Nm23-H1 with each of test compounds (Examples 1 to 3) in NDPK assay buffer (20 mM HEPES, 3 mM MgCl2) at room temperature for 10 minutes, followed by reaction with 5 μM ADP for 1 minute.
# MDA-MB-231 cells [1] = assay: Matrigel invasion assay; type: cell-based; conditions: Transwell with Matrigel, 24 hours at 37° C.
# Experimental: Invasion assay was performed using a Transwell® unit (Corning, USA) with a polycarbonate membrane (pore size: 8 μm), with or without Matrigel coating. The membrane was coated with 50 μg Matrigel™-based membrane matrix (BD Bioscience, USA). 5×10^4 MDA-MB-231 cells were seeded into the upper chamber in a serum-free medium together with the compound of Example 1, and the lower chamber was filled with a medium containing 10% FBS. After incubation for 24 hours at 37° C., the cells on the upper side of the membrane were removed. The cells invading to the underside of the membrane were stained with 0.5% Crystal violet in 25% methanol and counted at 100-fold magnification under a microscope.
# MDA-MB-231 cells [2] = assay: Immunofluorescent staining assay (F-actin localization); type: cell-based; conditions: Rhodamine-Phalloidin staining, various times
# Experimental: MDA-MB-231 cells were grown on the Secureslip™ (Sigma) cell culture glass cover slip to a confluence of 50 to 70%, and then treated with or without the compound of Example 1 (B038) for various times. The cells were gently washed with cold HBSS, and then fixed with 4% paraformaldehyde-containing HBSS […] for 10 minutes at room temperature. After washing with HBSS, permeabilization with 0.1% Triton X-100 was performed for 10 minutes at room temperature. After washing twice with HBSS, the cells were blocked with 3% BSA, 0.2% Tween20 and 0.2% gelatin in HBSS for 1 hour at room temperature, and incubated with primary antibody at 37° C. for 2 hours. F-actin was stained by Rhodamine-Phalloidin (Thermo Fisher Scientific) for 2 hours at 37° C., followed by washing 3 times with HBSS for 20 minutes. Coverslips were mounted with an anti-fading solution and viewed using an ×63 objective lens of an LSM510 META (Zeiss) laser scanning confocal microscope.
# recombinant Nm23-H1, sequence (P15531 whole entry): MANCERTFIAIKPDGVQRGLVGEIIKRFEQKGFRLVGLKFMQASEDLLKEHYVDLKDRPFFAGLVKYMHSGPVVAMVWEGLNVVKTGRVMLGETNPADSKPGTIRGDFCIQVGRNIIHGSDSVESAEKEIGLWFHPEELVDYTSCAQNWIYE
Structure (SMILES),NDPK activity (recombinant Nm23-H1),further results
"COc1ccc(C(=O)Nc2ccccc2-c2ccc(OC)c(OC)c2)cc1OC [Example 4, N-(3′,4′-dimethoxy-[1,1′-biphenyl]-2-yl)-3,4-dimethoxybenzamide]",1.52,
"COc1ccc(-c2ccccc2C2OC2c2ccc(OC)c(OC)c2)cc1OC (centres unmarked) [Example 2, 2-(3′,4′-dimethoxy-[1,1′-biphenyl]-2-yl)-3-(3,4-dimethoxyphenyl)oxirane]",4.08,
COc1ccc(CCc2ccccc2-c2ccc(OC)c(OC)c2)cc1OC [Example 1],6.55,"cell invasion (counting invaded cells, FIGS. 2A and 2B) (MDA-MB-231 cells [1]): significantly suppressed cell invasion; NDPK activity-increasing effect at various concentrations (FIG. 1) (recombinant Nm23-H1; various concentrations): excellent effect of increasing NDPK activity even at low concentrations; localization of F-actin (ruffles, cell-to-cell contact; FIG. 3) (MDA-MB-231 cells [2]): ruffles decreased and cell-to-cell contact increased"
"COc1ccc(NC(=O)c2ccccc2-c2ccc(OC)c(OC)c2)cc1OC [Example 3, N-(3,4-dimethoxyphenyl)-3′,4′-dimethoxy-[1,1′-biphenyl]-2-carboxamide]",1.32,

# Second part, led by results:
NDPK activity (recombinant Nm23-H1),Structure (SMILES),further results
2.6,"COc1cc(CCc2ccccc2-c2ccc(OC)c(OC)c2)ccc1O [Example 10, 4-(2-(3′,4′-dimethoxy-[1,1′-biphenyl]-2-yl)ethyl)-2-methoxyphenol]",
1.9,"COc1ccc(-c2ccccc2CCc2ccc(OC)c(OC)c2)cc1O [Example 6, 2′-(3,4-dimethoxyphenethyl)-4-methoxy-[1,1′-biphenyl]-3-ol]",
4,"COc1cc(-c2ccccc2CCc2ccc(OC)c(OC)c2)ccc1O [Example 5, 2′-(3,4-dimethoxyphenethyl)-3-methoxy-[1,1′-biphenyl]-4-ol]",
3.5,"COc1ccc(CCc2ccccc2-c2ccc(OC)c(OC)c2)cc1O [Example 7, 5-(2-(3′,4′-dimethoxy-[1,1′-biphenyl]-2-yl)ethyl)-2-methoxyphenol]",
